B1: G7-FLT3L dendrimers: FLT3L-conjugated Generation 7 (G7) PAMAM dendrimers, Cy5.5-labelled, targeting FLT3 on AML cells (conjugate)
chain: TQDCSFQHSPISSDFAVKIRELSDYLLQDYPVTVASNLQDEELCGGLWRLVLAQRWMERLKTVAGSKMQGLLERVNTEIHFVTKCAFQPPPSCLRFVQTNISRLLQETSEQLVALKPWITRQNFSRCLELQCQPDSSTLPPPWSPRPLEATAPTA

What was measured:
THP-1 cells = test: ATRA-treatment study, gene expression (qPCR) in THP-1 cells; format: cell-based, human; conditions: 1 μM ATRA, 72 hours, vs DMSO
Experimental: Total RNA was extracted with the miRNeasy extraction kit (Qiagen, Valencia, Calif.) and was used as template to synthesize cDNA for quantitative RT-PCR (qPCR) analysis in a 7900HT real-time PCR system (Applied Biosystems, Foster City, Calif.). TaqMan qPCR assay was performed to validate the differential expression patterns of miR-22 using commercial kits from Applied Biosystems (Cat. #4427975). Sequences for the controls are: sno202: 5′-[…]-3′ (SEQ ID NO: 1); RNU6B: 5′-[…]-3′ (SEQ ID NO: 4). qPCR with SYBR Green dye (Qiagen) was used to determine expression of mRNA genes. snoRNA202, RNU48, Gapdh or GAPDH were used as endogenous controls for qPCR of miRNA and mRNA, respectively. Each sample was run in triplicate. qPCR primers are available upon request. For determining the miR-22 DNA locus copy number, TaqMan qPCR assay was used as described previously^57.
(§1) For the ATRA-treatment study, THP-1 cells were seeded at a concentration of 0.4×10^6/mL and treated with ATRA (1 μmol/L) or vehicle control (DMSO, 0.001%) for 72 hours before cells were collected for RNA analysis or CUP assays.

miR-22 promoter region = test: ChIP-qPCR of miR-22 promoter region in ATRA-treated THP-1 cells; format: cell-based, human; conditions: 1 μM ATRA, 72 hours
Experimental: as §1
ChIP assay was performed, as described previously^14, 17, with SABiosciences Corporation's ChampionChiP™ One-Day kit (Qiagen, Frederick, Md.) following the manufacturer's protocol, with some modifications. Briefly, pellets of 5×10^6 cells were treated with fresh fixing buffer (1% formaldehyde) for 10 min at 37° C. to crosslink DNA and proteins. The reaction was terminated by the addition of stop buffer and incubated at room temperature for 5 min. After cell lysis, the cross-linked chromatin was sonicated to an average size of ˜500 bp and was immunoprecipitated with antibodies against TET1, GFI1 (Santa Cruz Biotechnology Inc., Santa Cruz, Calif.), the N′-terminal portion of MLL (MLL-N), the C′-terminal of MLL (MLL-C), H3K27Me3, H3K4Me3, RNA polymerase II, EZH2, SIN3A or IgG (Abcam, Cambridge, Mass.). Purified ChIP DNA was amplified by real-time qPCR using specific primers targeting the CpG-enriched upstream region of human miR-22: Forward: 5′-GTT GTT GGA GTC GTG AGT G-3′ (SEQ ID NO: 15); reverse: 5′-CGC TCC ACC TTT CCT TAA A-3′ (SEQ ID NO: 16); or mouse miR-22: Forward: 5′-TGA ATG GGC GGG AGT AA-3′ (SEQ ID NO: 17); reverse: 5′-CCAC GAG CTG CGA ATG AA-3′ (SEQ ID NO: 18).

miR-22 promoter = test: Bisulfite sequencing of miR-22 promoter in ATRA-treated THP-1 cells; format: cell-based, human; conditions: 1 μM ATRA or DMSO, 72 hrs
MONOMAC-6 cells [1] = test: Cellular uptake of dendrimers in MONOMAC-6 cells; format: cell-based, human
Text: (§2) In order to selectively deliver miR-22 oligos to FLT3-expressing AML cells, Poly(amidoamine) (PAMAM) dendrimers (Hong S, et al. Bioconjugate Chemistry. 2006; 17:728-34, Hong S, et al. Bioconjugate Chemistry. 2009; 20:1503-13, and Sunoqrot S, et al. J Control Release. 2014; 191:115-22, incorporated herein by reference) are selected as the basis of the nanoparticle carriers, and conjugated with the near-infrared dye Cyanine 5.5 (Cy5.5) for monitoring the dynamic distributions of the nanoparticles, and FLT3 ligand (FLT3L) proteins for specific targeting FLT3 on the cell surface. H2B, a nuclear histone protein with similar molecular weight as FLT3L, was conjugated as a negative control. G7-FLT3L dendrimers will efficiently and selectively target AML cells with FLT3 overexpression.

U937 cells = test: Cellular uptake of dendrimers in U937 cells; format: cell-based; conditions: U937 cells (very low levels of FLT)
Text: as §2

MONOMAC-6 cells [2] = test: Viability and apoptosis of MONOMAC-6 cells treated with dendrimers; format: cell-based, human; conditions: compared with PBS

Row | Molecule | WDR81 level (THP-1 cells) | expression of TET1, EZH2 and SIN3A (THP-1 cells) | expression of TET2 or TET3 (down-regulation) (THP-1 cells) | increase in miR-22 expression level (THP-1 cells) | transcription level of GFI1 (THP-1 cells) | H3K4Me3 modifications at miR-22 promoter region (miR-22 promoter region) | H3K27me3 modifications at miR-22 promoter region (miR-22 promoter region) | RNA polymerase II occupancy at miR-22 promoter region (miR-22 promoter region) | binding of GFI1, TET1, EZH2 and SIN3A to the miR-22 promoter region (miR-22 promoter region) | binding of MLL protein to the miR-22 promoter region (reduction) (miR-22 promoter region) | methylation status of the miR-22 promoter (miR-22 promoter) | one-hour uptake ratio (MONOMAC-6 cells [1]; FLT3-overexpressing AML cells, one hour) [%] | uptake ratio after suppression of endogenous FLT3 expression (MONOMAC-6 cells [1]; MONOMAC-6 cells overexpressing miR-22) | uptake ratio after 24 hours' treatment (MONOMAC-6 cells [1]; MONOMAC-6 cells, 24 hours, G7-FLT3L vs G7-H2B control) | uptake ratios, G7-FLT3L vs G7-H2B (U937 cells) | viability and apoptosis (cytotoxicity) (MONOMAC-6 cells [2])
1 | CC1=C(/C=C/C(C)=C/C=C/C(C)=C/C(=O)O)C(C)(C)CCC1 [ATRA, all-trans-retinoic acid] | no significant effects | significantly down-regulated | not | more than 5 fold | substantially reduced | no significant change | significantly decreased | increased | remarkably reduced | not | hypomethylated |  |  |  |  | 
2 | B1 |  |  |  |  |  |  |  |  |  |  |  | 23.6 | significant decrease | significantly higher | no significant difference | low, if any, cytotoxicity

Source: US10400242B2, “Methods for treating acute myeloid leukemia and nanoparticle complexes of miR-22 utilized therein” (University of Cincinnati, priority 2016, dated 2019)
